Laboratory results reported in patent US20160333419A1, “GENE SIGNATURES ASSOCIATED WITH SENSITIVITY TO MDM2 INHIBITORS” (DAIICHI SANKYO COMPANY, LIMITED, priority 2014, published 2016).

Key:
Assay in all cases: OncoPanel cytotoxicity assay
Assay type in all cases: cell-based
[1] = test system: 639-V; details: Homo sapiens, 72 hour incubation
How it was run: (§1)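 Cells grown in RPMI 1640 with 10% FBS (or a special medium) at 37° C, 5% CO2 were treated 24 hours after seeding for 72 hours with 10 concentrations (3.16-fold dilutions, 0.1% DMSO final). Nuclei were dye-stained and imaged; IC50 was fit from percent of control relative cell count.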

[2] = test system: A172; details: Homo sapiens, A 172, 72 hour incubation
How it was run: as §1

[3] = test system: A498; details: Homo sapiens, 72 hour incubation
How it was run: as §1

[4] = test system: AN3 CA; details: Homo sapiens, 72 hour incubation
How it was run: as §1

[5] = test system: BPH1; details: Homo sapiens, BPH-1, 72 hour incubation
How it was run: as §1

[6] = test system: CCF-STTG1; details: Homo sapiens, 72 hour incubation
How it was run: as §1

[7] = test system: CEM-C1; details: Homo sapiens, 72 hour incubation
How it was run: as §1

[8] = test system: CHL-1; details: Homo sapiens, 72 hour incubation
How it was run: as §1

[9] = test system: Calu1; details: Homo sapiens, Calu-1, 72 hour incubation
How it was run: as §1

[10] = test system: Colo 320 HSR; details: Homo sapiens, 72 hour incubation
How it was run: as §1

[11] = test system: DLD-1; details: Homo sapiens, 72 hour incubation
How it was run: as §1

[12] = test system: DMS53; details: Homo sapiens, DMS-53, 72 hour incubation
How it was run: as §1

[13] = test system: Detroit 562; details: Homo sapiens, 72 hour incubation
How it was run: as §1

[14] = test system: H4; details: Homo sapiens, 72 hour incubation
How it was run: as §1

[15] = test system: HT-29; details: Homo sapiens, 72 hour incubation
How it was run: as §1

[16] = test system: HepG2; details: Homo sapiens, 72 hour incubation
How it was run: as §1

[17] = test system: KATO III; details: Homo sapiens, 72 hour incubation
How it was run: as §1

[18] = test system: KLE; details: Homo sapiens, 72 hour incubation
How it was run: as §1

[19] = test system: LS1034; details: Homo sapiens, LS-1034, 72 hour incubation
How it was run: as §1

[20] = test system: MG-63; details: Homo sapiens, 72 hour incubation
How it was run: as §1

[21] = test system: NCI-H292; details: Homo sapiens, 72 hour incubation
How it was run: as §1

[22] = test system: OCUG-1; details: Homo sapiens, 72 hour incubation
How it was run: as §1

[23] = test system: OVCAR3; details: Homo sapiens, OVCAR-3, 72 hour incubation
How it was run: as §1

[24] = test system: RL95-2; details: Homo sapiens, 72 hour incubation
How it was run: as §1

[25] = test system: Raji; details: Homo sapiens, 72 hour incubation
How it was run: as §1

[26] = test system: Ramos (RA 1); details: Homo sapiens, 72 hour incubation
How it was run: as §1

[27] = test system: SCC-4; details: Homo sapiens, 72 hour incubation
How it was run: as §1

[28] = test system: SHP-77; details: Homo sapiens, SHP77, 72 hour incubation
How it was run: as §1

[29] = test system: SK-MEL-1; details: Homo sapiens, 72 hour incubation
How it was run: as §1

[30] = test system: SK-MEL-3; details: Homo sapiens, SK-MEL3, 72 hour incubation
How it was run: as §1

[31] = test system: SK-N-FI; details: Homo sapiens, 72 hour incubation
How it was run: as §1

[32] = test system: SKOV3; details: Homo sapiens, SK-OV-3, 72 hour incubation
How it was run: as §1

[33] = test system: SW1417; details: Homo sapiens, 72 hour incubation
How it was run: as §1

[34] = test system: SW579; details: Homo sapiens, 72 hour incubation
How it was run: as §1

[35] = test system: SW982; details: Homo sapiens, 72 hour incubation
How it was run: as §1

[36] = test system: SaOS2; details: Homo sapiens, SAOS-2, 72 hour incubation
How it was run: as §1

[37] = test system: SiHa; details: Homo sapiens, 72 hour incubation
How it was run: as §1

[38] = test system: WiDr; details: Homo sapiens, 72 hour incubation
How it was run: as §1

SMILES | IC50 [1] | IC50 [2] | IC50 [3] | IC50 [4] | IC50 [5] | IC50 [6] | IC50 [7] | IC50 [8] | IC50 [9] | IC50 [10] | IC50 [11] | IC50 [12] | IC50 [13] | IC50 [14] | IC50 [15] | IC50 [16] | IC50 [17] | IC50 [18] | IC50 [19] | IC50 [20] | also measured
CC1(C)CCC2(CC1)N[C@@H](C(=O)N[C@@H]1CC[C@@H](C(N)=O)OC1)[C@H](c1ccnc(Cl)c1F)[C@]21C(=O)Nc2cc(Cl)ccc21 [Compound B, (3′R,4′S,5′R)—N-[(3R,6S)-6-carbamoyltetrahydro-2H-pyran-3-yl]-6″-chloro-4′-(2-chloro-3-fluoropyridin-4-yl)-4,4-dimethyl-2″-oxo-1″,2″-dihydrodispiro[cyclohexane-1,2′-pyrrolidine-3′,3″-indole]-5′-carboxamide] | 6.39 µM | 0.0689 µM | 0.119 µM | 8.75 µM | > 10 µM | 0.0852 µM | 9.37 µM | 9.1 µM | > 10 µM | > 10 µM | 8.91 µM | > 10 µM | 7.74 µM | 0.024 µM | 5.14 µM | 0.0584 µM | > 10 µM | > 10 µM | > 10 µM | > 10 µM | IC50 [21]: 0.0347 µM; IC50 [22]: > 10 µM; IC50 [23]: > 10 µM; IC50 [24]: 3.72 µM; IC50 [25]: 5.32 µM; IC50 [26]: 8.66 µM; IC50 [27]: > 10 µM; IC50 [28]: 8.32 µM; IC50 [29]: 0.0293 µM; IC50 [30]: > 10 µM; IC50 [31]: > 10 µM; IC50 [32]: > 10 µM; IC50 [33]: > 10 µM; IC50 [34]: 9.61 µM; IC50 [35]: 0.0209 µM; IC50 [36]: > 10 µM; IC50 [37]: > 10 µM; IC50 [38]: 5.58 µM
CC[C@@H]1CNC2(CC2)CN1C(=O)[C@@H]1C[C@@H](F)CN1C(=O)C1=C(C(C)C)N2C(=N[C@@](C)(c3ccc(Cl)nc3)[C@H]2c2ccc(Cl)c(F)c2)S1 [Compound A, [(5R,6S)-5-(4-Chloro-3-fluorophenyl)-6-(6-chloropyridin-3-yl)-6-methyl-3-(propan-2-yl)-5,6-dihydroimidazo[2,1-b][1,3]thiazol-2-yl][(2S,4R)-2-{[(6R)-6-ethyl-4,7-diazaspiro[2.5]oct-7-yl]carbonyl}-4-fluoropyrrolidin-1-yl]methanone] | > 40 µM | 0.795 µM | 1.71 µM | > 40 µM | > 40 µM | 0.541 µM | 33.6 µM | > 40 µM | > 40 µM | > 40 µM | > 40 µM | 38.4 µM | > 40 µM | 0.172 µM | 33.5 µM | 0.335 µM | 36.6 µM | > 40 µM | > 40 µM | > 40 µM | IC50 [21]: 0.479 µM; IC50 [22]: > 40 µM; IC50 [23]: > 40 µM; IC50 [24]: 13.8 µM; IC50 [25]: 13.8 µM; IC50 [26]: > 40 µM; IC50 [27]: > 40 µM; IC50 [28]: > 40 µM; IC50 [29]: 0.207 µM; IC50 [30]: > 40 µM; IC50 [31]: > 40 µM; IC50 [32]: > 40 µM; IC50 [33]: > 40 µM; IC50 [34]: > 40 µM; IC50 [35]: 0.232 µM; IC50 [36]: > 40 µM; IC50 [37]: > 40 µM; IC50 [38]: 34.8 µM
